Test results reported in patent US8884030B2, “Inhibitors of Flaviviridae viruses” (priority 2010, dated 2014).

Test system: human hepatoma Huh-7 cell line harboring a HCV replicon
Assay: HCV replicon assay (inhibition of viral replication, luciferase)
Format: cell-based
Conditions: Hepatitis C virus, 72 h; 2 μM; Huh-7 HCV replicon cells, 3 days incubation; inhibition of viral replication; read-out: % inhibition at 2 μM
Procedure: The anti-HCV activity of the compounds of this invention was tested in a human hepatoma Huh-7 cell line harboring a HCV replicon. The assay comprised the following steps:
Step 1: Compound Preparation and Serial Dilution.
Serial dilution was performed in 100% DMSO in a 384-well plate. A solution containing a compound at 225-fold concentration of the starting final serial dilution concentration was prepared in 100% DMSO and 15 uL added to the pre-specified wells in column 3 or 13 of a polypropylene 384-well plate. The rest of the 384-well plate was filled with 10 uL 100% DMSO except for columns 23 and 24, where 10 uL of 500 uM a HCV protease inhibitor (ITMN-191) in 100% DMSO was added. The HCV protease inhibitor was used a control of 100% inhibition of HCV replication. The plate was then placed on a Biomek FX Workstation to start the serial dilution. The serial dilution was performed for ten cycles of 3-fold dilution from column 3 to 12 or from column 13 to 22.
Step 2: Cell Culture Plate Preparation and Compound Addition
To each well of a black polypropylene 384-well plate, 90 μL of cell media containing 1600 suspended Huh-7 HCV replicon cells was added with a Biotek uFlow Workstation. A volume of 0.4 μL of the compound solution was transferred from the serial dilution plate to the cell culture plate on a Biomek FX Workstation. The DMSO concentration in the final assay condition was 0.44%. The plates were incubated for 3 days at 37° C. with 5% CO2 and 85% humidity.
Step 3: Detection of Cytotoxicity and Inhibition of Viral Replication
a) Assessment of cytotoxicity: The media in the 384-well cell culture plate was aspirated with a Biotek EL405 plate-washer. A volume of 50 μL of a solution containing 400 nM Calcein AM in 100% PBS was added to each well of the plate with a Biotek uFlow Workstation. The plate was incubated for 30 minutes at room temperature before the fluorescence signal ([…]) was measured with a Perkin Elmer Envision Plate Reader.
b) Assessment of inhibition of viral replication: The calcein-PBS solution in the 384-well cell culture plate was aspirated with a Biotek EL405 plate-washer. A volume of 20 μL of Dual-Glo luciferase buffer (Promega, Dual-Glo Luciferase Assay Reagent, cat. #E298B) was added to each well of the plate with a Biotek uFlow Workstation. The plate was incubated for 10 minutes at room temperature. A volume of 20 μL of a solution containing 1:100 mixture of Dual-Glo Stop & Glo substrate(Promega, Dual-Glo Luciferase Assay Reagent, cat. #E313B) and Dual-Glo Stop & Glo buffer (Promega, Dual-Glo Luciferase Assay Reagent, cat. #E314B) was then added to each well of the plate with a Biotek uFlow Workstation. The plate was incubated at room temperature for 10 minutes before the luminescence signal was measured with a Perkin Elmer Envision Plate Reader.
The percent cytotoxicity was determined by calcein AM conversion to fluorescent product. The average fluorescent signal from the DMSO control wells were defined as 100% nontoxic. The individual fluorescent signal from testing compound treated well was divided by the average signal from DMSO control wells and then multiplied by 100% to get the percent viability. The percent anti-HCV replication activity was determined by the luminescence signal from the testing well compared to DMSO controls wells. The background signal was determined by the average luminescence signal from the HCV protease inhibitor treated wells and was subtracted from the signal from the testing wells as well as the DMSO control wells. Following 3-fold serial dilutions, the EC50 and CC50 values were calculated by fitting % inhibition at each concentration to the following equation: % inhibition=100%[(EC50/[l])^b+1]
Where b is Hill's coefficient. See, for reference, Hill, A. V., The Possible Effects of the Aggregation of the Molecules of Hæmoglobin on its Dissociation Curves, J. Physiol. 40: iv-vii. (1910). […]

Structure (SMILES)	inhibition at 2 µM [%]
CC(C)(C)C#Cc1cc(N(C(=O)[C@H]2CC[C@H](C)CC2)C2CCC(NC(=O)OC3(C)CCNC3)CC2)c(C(=O)O)s1 (stereo partly drawn) [Compound 76, 5-(3,3-Dimethyl-but-1-ynyl)-3-{(trans-4-cyclohexanecarbonyl)-[4-(3-methyl-pyrrolidin-3-yloxycarbonylamino)-cyclohexyl]-amino}-thiophene-2-carboxylic acid]	99.4
CC1CCC(C(=O)N(c2cc(C#CC(C)(C)C)sc2C(=O)O)N(C)C2CCN(C(=O)OC(C)(C)C)CC2)CC1 (stereo not drawn) [Compound 127, 4-[N′-[2-carboxy-5-(3,3-dimethyl-but-1-ynyl)-thiophen-3-yl]-N-methyl-N′-(4-methyl-cyclohexanecarbonyl)-hydrazino]-piperidine-1-carboxylic acid tert-butyl ester]	98.3
CC1CCC(C(=O)N(c2cc(C#CC(C)(C)C)sc2C(=O)O)N(C)C2CCNCC2)CC1 (stereo not drawn) [Compound 128, 5-(3,3-dimethyl-but-1-ynyl)-3-[N′-methyl-N-(4-methyl-cyclohexanecarbonyl)-N′-piperidin-4-yl-hydrazino]-thiophene-2-carboxylic acid]	99.8
CC(C)(C)C#Cc1cc(N(C(=O)[C@H]2CC[C@H](C)CC2)[C@H]2CCN(C(=O)OC3(C)CN(C(=O)OC(C)(C)C)C3)C2)c(C(=O)O)s1 [Compound 69, 3-[[2-carboxy-5-(3,3-dimethyl-but-1-ynyl)-thiophen-3-yl]-(trans-4-methyl-cyclohexanecarbonyl)-3-(S)-amino]-pyrrolidine-1-carboxylic acid 1-tert-butoxycarbonyl-3-methyl-azetidin-3-yl ester]	99.5
CC(C)(C)C#Cc1cc(N(C(=O)[C@H]2CC[C@H](C)CC2)C2CCC(NC(=O)O[C@@H]3CCNC3=O)CC2)c(C(=O)O)s1 (stereo partly drawn) [Compound 50, 5-(3,3-dimethyl-but-1-ynyl)-3-{(4-trans-methyl-cyclohexanecarbonyl)-[4-(2-oxo-pyrrolidin-3-(R)-yloxycarbonylamino)-cyclohexyl]-amino}-thiophene-2-carboxylic acid]	99.9
CC(C)(C)C#Cc1cc(N(C(=O)[C@H]2CC[C@H](C)CC2)C2CCN(C(=O)O[C@H]3CCNC3=O)CC2)c(C(=O)O)s1 [Compound 57, 4-[[2-carboxy-5-(3,3-dimethyl-but-1-ynyl)-thiophen-3-yl]-(4-methyl-cyclohexanecarbonyl)-amino]-piperidine-1-carboxylic acid 2-oxo-pyrrolidin-3-(S)-yl ester]	78.2
CC(C)(C)C#Cc1cc(N(C(=O)[C@H]2CC[C@H](C)CC2)C2CCN(C(=O)O[C@@H]3CCOC3)CC2)c(C(=O)O)s1 [Compound 53, 4-[[2-carboxy-5-(3,3-dimethyl-but-1-ynyl)-thiophen-3-yl]-(4-trans-methyl-cyclohexanecarbonyl)-amino]-piperidine-1-carboxylic acid tetrahydro-furan-3-(R)-yl ester]	99.9
CC(C)(C)C#Cc1cc(N(C(=O)[C@H]2CC[C@H](C)CC2)[C@H]2CCN(C(=O)OC3(C)CCNC3)C2)c(C(=O)O)s1 (stereo partly drawn) [Compound 68, 3-(S)-[[2-Carboxy-5-(3,3-dimethyl-but-1-ynyl)-thiophen-3-yl]-(trans-4-methylcyclohexanecarbonyl)-amino]-pyrrolidine-1-carbocylic-acid-3-methyl-pyrrolidin-3-yl-ester]	98.5
CC(C)(C)C#Cc1cc(N(C(=O)[C@H]2CC[C@H](C)CC2)[C@H]2CCN(C(=O)O[C@@H]3CCCN(C(=O)OC(C)(C)C)C3)C2)c(C(=O)O)s1 [Compound 37, 3-(R)-{3-(S)-[[2-carboxy-5-(3,3-dimethyl-but-1-ynyl)-thiophen-3-yl]-(4-trans-methyl-cyclohexanecarbonyl)-amino]-pyrrolidine-1-carbonyloxy}-piperidine-1-carboxylic acid tert-butyl ester]	99.6
CC1CCC(C(=O)N(c2cc(C#CC(C)(C)C)sc2C(=O)O)C2CCN(C(=O)c3cccnc3)C2)CC1 (stereo not drawn) [Compound 142, 5-(3,3-Dimethyl-but-1-ynyl)-3-{(4-methyl-cyclohexanecarbonyl)-[1-(pyridine-3-carbonyl)-pyrrolidin-3-yl]-amino}-thiophene-2-carboxylic acid]	99.6
CON=C1CCC(N(C(=O)C2CCC(C)CC2)c2cc(C#CC(C)(C)C)sc2C(=O)O)CC1 (stereo not drawn) [Compound 120, 5-(3,3-Dimethylbut-1-ynyl)-3-(N-(4-(methoxyimino)cyclohexyl)-4-methylcyclohexanecarboxamido)thiophene-2-carboxylic acid]	99.9
CC(C)(C)C#Cc1cc(N(C(=O)[C@H]2CC[C@H](C)CC2)C2CCC(NC(=O)O[C@@H]3CCCN(C(=O)OC(C)(C)C)C3)CC2)c(C(=O)O)s1 (stereo partly drawn) [Compound 46, 3-(R)-{4-[[2-carboxy-5-(3,3-dimethyl-but-1-ynyl)-thiophen-3-yl]-(4-trans-methyl-cyclohexanecarbonyl)-amino]-cyclohexylcarbamoyloxy}-piperidine-1-carboxylic acid tert-butyl ester]	97
CC(C)(C)C#Cc1cc(N(C(=O)[C@H]2CC[C@H](C)CC2)C2CCC(NC(=O)O[C@H]3CNC(=O)C3)CC2)c(C(=O)O)s1 (stereo partly drawn) [Compound 49, 5-(3,3-dimethyl-but-1-ynyl)-3-{(4-trans-methyl-cyclohexanecarbonyl)-[4-(5-oxo-pyrrolidin-3-(S)-yloxycarbonylamino)-cyclohexyl]-amino}-thiophene-2-carboxylic acid]	99.2
CC1CCC(C(=O)N(c2cc(C#CC(C)(C)C)sc2C(=O)O)C2CCC(=NOCc3cccnc3)CC2)CC1 (stereo not drawn) [Compound 118, 5-(3,3-Dimethylbut-1-ynyl)-3-(4-methyl-N-(4-(pyridin-3-ylmethoxyimino)cyclohexyl)cyclohexanecarboxamido)thiophene-2-carboxylic acid]	100
CC1CCC(C(=O)N(c2cc(C#CC(C)(C)C)sc2C(=O)O)C2CCC(=NOCc3ccncc3)CC2)CC1 (stereo not drawn) [Compound 117, 5-(3,3-Dimethylbut-1-ynyl)-3-(4-methyl-N-(4-(pyridin-4-ylmethoxyimino)cyclohexyl)cyclohexanecarboxamido)thiophene-2-carboxylic acid]	99.9
CC(C)(C)C#Cc1cc(N(C(=O)[C@H]2CC[C@H](C)CC2)[C@H]2CCN(C(=O)O[C@H]3CCNC3=O)C2)c(C(=O)O)s1 [Compound 43, 3-(S)-[[2-carboxy-5-(3,3-dimethyl-but-1-ynyl)-thiophen-3-yl]-(4-trans-methyl-cyclohexanecarbonyl)-amino]-pyrrolidine-1-carboxylic acid 2-oxo-pyrrolidin-3-(R)-yl ester]	96.2
CC1CCC(C(=O)N(c2cc(C#CC(C)(C)C)sc2C(=O)O)C2CCN(C(=O)c3cnccn3)CC2)CC1 (stereo not drawn) [Compound 141, 5-(3,3-dimethyl-but-1-ynyl)-3-{(4-methyl-cyclohexanecarbonyl)-[1′-(pyrazine-2-carbonyl)-piperidin-4-yl]-amino}-thiophene-2-carboxylic acid]	99.9
CC(C)(C)C#Cc1cc(N(C(=O)[C@H]2CC[C@H](C)CC2)[C@H]2CCN(C(=O)O[C@@H]3CCOC3)C2)c(C(=O)O)s1 [Compound 42, 3-(S)-[[2-carboxy-5-(3,3-dimethyl-but-1-ynyl)-thiophen-3-yl]-(4-trans-methyl-cyclohexanecarbonyl)-amino]-pyrrolidine-1-carboxylic acid tetrahydro-furan-3-(R)-yl ester]	99.9
